Reference: US20220095663A1, “COMPLEX MUSHROOM MYCELIUM COMPOSITION HAVING LIVER FUNCTION-IMPROVING ACTIVITY AND PREPARATION METHOD THEREFOR” (GIUNCHAN CO., LTD., priority 2019, published 2022)

Experiment: Antioxidation activity by DPPH method
Conditions: 50 μg/ml, positive control
Method: 7) Antioxidation activity measurement test: The antioxidation activity of each sample was measured by a DPPH method using 1.1-diphenyl-2-picrylhydrazyl. The positive control group was treated with BHT at a concentration of 50 μg/ml.

SMILES: Cc1cc(C(C)(C)C)c(O)c(C(C)(C)C)c1 [BHT]
- DPPH inhibition: 10%
